Source: PMC10935503 (Acta Pharmaceutica Sinica. B, 2023)
Converted amounts (≈) assume the structure as drawn.

Key:
HIV-1 L100I = assay: microbe, parasite or virus in culture; assay type: cell-based
CYP1A2 = target: T1, CYP1A2 (Homo sapiens, UniProt P05177); assay: Cytochrome P450 inhibition assay, CYP1A2
T1 sequence (P05177 1-516): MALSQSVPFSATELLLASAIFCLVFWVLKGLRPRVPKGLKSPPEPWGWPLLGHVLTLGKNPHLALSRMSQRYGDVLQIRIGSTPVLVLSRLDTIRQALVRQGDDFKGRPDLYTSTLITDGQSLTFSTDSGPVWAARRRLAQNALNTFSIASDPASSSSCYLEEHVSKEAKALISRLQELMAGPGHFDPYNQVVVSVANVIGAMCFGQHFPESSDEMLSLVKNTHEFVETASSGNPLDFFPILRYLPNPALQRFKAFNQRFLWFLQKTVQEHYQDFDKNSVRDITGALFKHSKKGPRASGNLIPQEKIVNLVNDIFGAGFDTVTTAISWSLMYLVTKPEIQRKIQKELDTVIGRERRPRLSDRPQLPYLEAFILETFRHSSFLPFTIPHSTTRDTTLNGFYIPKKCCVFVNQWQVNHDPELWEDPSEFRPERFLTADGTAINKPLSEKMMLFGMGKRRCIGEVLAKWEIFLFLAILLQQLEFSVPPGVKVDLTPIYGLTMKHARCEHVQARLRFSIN

CYP2C9 = CYP2C9 (Homo sapiens, UniProt P11712); assay: Cytochrome P450 inhibition assay, CYP2C9; assay type: in vitro ADME
CYP2C19 = CYP2C19 (Homo sapiens, UniProt P33261); assay: Cytochrome P450 inhibition assay, CYP2C19; assay type: in vitro ADME
CYP3A4 = CYP3A4 (Homo sapiens, UniProt P08684); assay: Cytochrome P450 inhibition assay, CYP3A4
HIV-1 F227L + V106A = assay: microbe, parasite or virus in culture; assay type: cell-based
[1] = In vivo pharmacokinetics in SD rats; parameters: species or system Sprague–Dawley (SD) rats
HIV-1 K103N = assay: microbe, parasite or virus in culture; assay type: cell-based
[2] = Single-dose acute toxicity in mice; assay type: in vivo; conditions: Kunming mice, single intragastric dose 2000 mg/kg, 7 days observation
hERG channel = hERG channel (Homo sapiens, UniProt Q12809); assay: hERG channel inhibition assay, manual patch-clamp in HEK293 cells; assay type: cell-based; conditions: HEK293 cells stably transfected with hERG cDNA
[3] = Cytotoxicity in mock-infected MT-4 cells, MTT method; assay type: cell-based; conditions: human
HIV-1 Y188L = assay: microbe, parasite or virus in culture; assay type: cell-based
HIV-1 RT = HIV-1 RT (Human immunodeficiency virus type 1 group M subtype B, UniProt P03366); assay: HIV-1 RT inhibition assay; assay type: biochemical
[4] = test system: main CYP enzymes (CYP1A2, CYP2C9, CYP2C19, CYP2D6, CYP3A4; range over isoforms); assay: Cytochrome P450 inhibition assay, summary over isoforms; assay type: in vitro ADME; conditions: human, human liver microsomes
HIV-1 E138K = assay: microbe, parasite or virus in culture; assay type: cell-based
CYP2D6 = CYP2D6 (Homo sapiens, UniProt P10635); assay: biochemical
[5] = test system: HIV-1 K103N + Y181C (RES056); assay: microbe, parasite or virus in culture; assay type: cell-based
HIV-1 WT strain (IIIB) = assay: Anti-HIV-1 activity in MT-4 cells, MTT method, WT strain IIIB; assay type: cell-based; conditions: Human immunodeficiency virus 1, IIIB, MT4, read-out: EC50 IIIB
HIV-1 Y181C = assay: microbe, parasite or virus in culture; assay type: cell-based
[6] = resistance fold, EC50 (mutant strain)/EC50 (WT strain)
[7] = selectivity index, ratio of CC50/EC50
[8] = Sprague-Dawley, rat, plasma, iv, 2 mg/kg
[9] = Sprague-Dawley, rat, plasma, po, 20 mg/kg

Sequence of hERG channel (Q12809 whole entry): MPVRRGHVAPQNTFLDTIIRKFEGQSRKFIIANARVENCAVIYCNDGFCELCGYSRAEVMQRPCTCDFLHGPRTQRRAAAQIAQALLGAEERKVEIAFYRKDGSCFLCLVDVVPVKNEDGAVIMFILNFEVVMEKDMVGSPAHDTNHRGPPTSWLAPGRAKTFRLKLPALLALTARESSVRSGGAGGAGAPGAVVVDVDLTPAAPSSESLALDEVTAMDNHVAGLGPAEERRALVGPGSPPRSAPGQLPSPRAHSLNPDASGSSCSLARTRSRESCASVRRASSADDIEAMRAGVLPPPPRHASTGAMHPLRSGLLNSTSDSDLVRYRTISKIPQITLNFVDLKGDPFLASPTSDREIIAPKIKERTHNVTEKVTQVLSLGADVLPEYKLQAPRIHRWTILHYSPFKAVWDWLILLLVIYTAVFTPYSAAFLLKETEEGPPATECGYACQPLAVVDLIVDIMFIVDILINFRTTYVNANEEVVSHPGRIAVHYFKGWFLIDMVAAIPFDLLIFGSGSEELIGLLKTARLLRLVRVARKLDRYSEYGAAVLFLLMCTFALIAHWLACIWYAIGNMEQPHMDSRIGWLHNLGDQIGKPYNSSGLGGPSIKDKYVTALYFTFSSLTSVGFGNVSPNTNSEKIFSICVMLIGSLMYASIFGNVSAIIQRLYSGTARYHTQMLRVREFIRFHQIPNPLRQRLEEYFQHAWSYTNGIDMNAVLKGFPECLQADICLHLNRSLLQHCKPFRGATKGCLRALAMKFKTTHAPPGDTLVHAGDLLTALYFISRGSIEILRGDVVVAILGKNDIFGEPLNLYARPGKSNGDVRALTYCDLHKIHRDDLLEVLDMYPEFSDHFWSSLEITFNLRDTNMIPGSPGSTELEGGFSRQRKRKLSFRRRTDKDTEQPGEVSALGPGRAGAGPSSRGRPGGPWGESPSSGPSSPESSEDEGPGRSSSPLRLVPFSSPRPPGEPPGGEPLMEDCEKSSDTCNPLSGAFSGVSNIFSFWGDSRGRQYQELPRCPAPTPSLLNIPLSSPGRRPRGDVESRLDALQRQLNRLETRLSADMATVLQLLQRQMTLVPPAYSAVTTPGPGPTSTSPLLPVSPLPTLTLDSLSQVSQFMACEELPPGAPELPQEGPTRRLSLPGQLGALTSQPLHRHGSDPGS
Sequence of CYP2D6 (P10635 whole entry): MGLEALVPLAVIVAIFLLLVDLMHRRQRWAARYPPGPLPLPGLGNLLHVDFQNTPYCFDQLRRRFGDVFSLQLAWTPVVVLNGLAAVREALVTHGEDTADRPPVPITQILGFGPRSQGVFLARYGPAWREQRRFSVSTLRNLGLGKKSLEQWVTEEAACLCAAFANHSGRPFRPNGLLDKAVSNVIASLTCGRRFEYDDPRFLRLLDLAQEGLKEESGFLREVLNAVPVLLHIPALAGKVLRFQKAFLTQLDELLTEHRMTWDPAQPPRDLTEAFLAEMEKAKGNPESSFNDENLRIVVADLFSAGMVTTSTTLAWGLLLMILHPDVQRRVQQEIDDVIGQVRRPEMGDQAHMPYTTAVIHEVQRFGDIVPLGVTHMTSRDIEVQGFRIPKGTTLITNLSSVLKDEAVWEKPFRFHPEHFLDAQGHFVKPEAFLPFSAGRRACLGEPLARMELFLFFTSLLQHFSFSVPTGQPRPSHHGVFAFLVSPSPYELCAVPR
Sequence of CYP3A4 (P08684 whole entry): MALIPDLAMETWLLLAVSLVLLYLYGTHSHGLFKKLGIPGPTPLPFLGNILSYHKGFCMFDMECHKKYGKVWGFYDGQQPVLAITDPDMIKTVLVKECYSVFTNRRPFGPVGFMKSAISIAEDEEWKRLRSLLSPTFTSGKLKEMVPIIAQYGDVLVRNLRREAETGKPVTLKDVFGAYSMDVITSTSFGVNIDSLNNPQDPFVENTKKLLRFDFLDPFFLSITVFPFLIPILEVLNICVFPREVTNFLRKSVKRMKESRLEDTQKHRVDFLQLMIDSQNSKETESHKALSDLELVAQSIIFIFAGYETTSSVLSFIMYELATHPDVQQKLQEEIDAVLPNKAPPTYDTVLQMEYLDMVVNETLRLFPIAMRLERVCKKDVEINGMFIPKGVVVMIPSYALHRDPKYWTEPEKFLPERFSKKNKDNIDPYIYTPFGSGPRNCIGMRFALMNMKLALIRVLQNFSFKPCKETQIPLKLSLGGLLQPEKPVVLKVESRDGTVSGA
Sequence of CYP2C9 (P11712 whole entry): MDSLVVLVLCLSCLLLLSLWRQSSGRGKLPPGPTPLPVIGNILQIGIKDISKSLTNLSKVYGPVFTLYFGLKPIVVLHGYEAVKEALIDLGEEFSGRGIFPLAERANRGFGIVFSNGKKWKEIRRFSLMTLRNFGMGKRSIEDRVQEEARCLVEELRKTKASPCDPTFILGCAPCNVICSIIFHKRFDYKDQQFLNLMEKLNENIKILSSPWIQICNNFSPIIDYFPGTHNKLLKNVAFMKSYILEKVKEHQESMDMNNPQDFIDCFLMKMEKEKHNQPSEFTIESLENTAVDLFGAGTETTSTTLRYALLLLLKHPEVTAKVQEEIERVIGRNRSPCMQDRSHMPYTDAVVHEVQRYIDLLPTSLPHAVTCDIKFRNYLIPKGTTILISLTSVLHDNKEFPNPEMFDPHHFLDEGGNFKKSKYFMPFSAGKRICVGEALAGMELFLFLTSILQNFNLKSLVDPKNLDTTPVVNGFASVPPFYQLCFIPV
Sequence of CYP2C19 (P33261 whole entry): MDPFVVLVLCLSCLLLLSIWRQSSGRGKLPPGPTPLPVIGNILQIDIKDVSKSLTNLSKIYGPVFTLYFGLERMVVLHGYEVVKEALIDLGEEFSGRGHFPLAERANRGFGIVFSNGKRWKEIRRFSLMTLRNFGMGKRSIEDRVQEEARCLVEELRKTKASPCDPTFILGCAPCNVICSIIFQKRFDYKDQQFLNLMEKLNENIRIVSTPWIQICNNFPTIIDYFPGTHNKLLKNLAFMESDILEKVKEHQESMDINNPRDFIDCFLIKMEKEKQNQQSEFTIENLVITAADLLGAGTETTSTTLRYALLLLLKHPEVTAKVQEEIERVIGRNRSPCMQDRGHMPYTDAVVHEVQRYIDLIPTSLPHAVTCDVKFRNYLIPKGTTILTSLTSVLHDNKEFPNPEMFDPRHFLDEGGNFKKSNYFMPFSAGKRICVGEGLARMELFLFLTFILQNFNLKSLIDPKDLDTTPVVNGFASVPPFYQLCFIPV

With Cc1cc(/C=C/C#N)cc(C)c1Oc1nc(NC2CCN(Cc3ccc(S(N)(=O)=O)cc3)CC2)nc2c1SCCC2 [compound 23h, (E)-4-((4-((4-(4-(2-Cyanovinyl)-2,6-dimethylphenoxy)-7,8-dihydro-6H-thiopyrano[3,2-d]pyrimidin-2-yl)amino)piperidin-1-yl)methyl)benzenesulfonamide] the EC50 (HIV-1 L100I; Human immunodeficiency virus 1, MT4, read-out: EC50 L100I) was 0.00446 ± 0.00036 µM, the “Times greater activity than ETR, L100I” value (HIV-1 L100I; ratio of EC50 values vs ETR) was 2.0 times and the “RF L100I” value (HIV-1 L100I; [6]) was 1.3. The “SI L100I” value (HIV-1 L100I; [7]) was 742, the IC50 (CYP1A2) was greater than 50 µM and the IC50 (CYP2C9) was 3.41 µM. It also gave an IC50 (CYP2C19) of 15.6 µM, an IC50 (CYP3A4) of 13.5 µM and an EC50 (HIV-1 F227L + V106A; Human immunodeficiency virus 1, MT4, read-out: EC50 F227L + V106A) of 0.00535 ± 0.00069 µM. The “Fold better than EFV, F227L + V106A” value (HIV-1 F227L + V106A; ratio of EC50 values vs EFV) was 14.5 fold, the “Fold better than RPV, F227L + V106A” value (HIV-1 F227L + V106A; ratio of EC50 values vs RPV) was 15.3 fold and the “RF F227L + V106A” value (HIV-1 F227L + V106A; [6]) was 1.6. For the same compound, the “SI F227L + V106A” value (HIV-1 F227L + V106A; [7]) was 619, the “V (iv)” value ([1]; SD rats, iv 2 mg/kg, mean ± SD, n = 3, 2 mg/kg) was 49.7 L/kg and the AUC(0-inf) [1, 8] was 1210 ± 78.9 ng·h/mL. It also gave an AUC(0-t) [1, 8] of 1150 ± 69.7 ng·h/mL, an MRT inf [1, 8] of 2.03 ± 0.41 h and an MRT last [1, 8] of 1.56 ± 0.17 h. It also gave a clearance [1, 8] of 277 mL/min/kg, a half-life [1, 8] of 2.09 ± 0.39 h and a bioavailability ([1]; Sprague-Dawley, rat, plasma, oral, 20 mg/kg) of 15.3%. It also gave an AUC(0-inf) [1, 9] of 1860 ± 1680 ng·h/mL, an AUC(0-t) [1, 9] of 1680 ± 1480 ng·h/mL and a Cmax [1, 9] of 333 ± 276 ng/mL. The MRT inf [1, 9] was 5.02 ± 0.48 h, the MRT last [1, 9] was 4.1 ± 0.12 h and the Tmax [1, 9] was 1.5 ± 0.87 h. The half-life [1, 9] was 3 ± 0.74 h, the solubility (physchem; pH 2, aqueous buffer) was 161 µg/mL (≈ 273 µM) and the solubility (physchem; pH 7, aqueous buffer) was 11.7 µg/mL (≈ 19.8 µM). The solubility (physchem; pH 7.4, aqueous buffer) was 3.04 µg/mL (≈ 5.15 µM), the EC50 (HIV-1 K103N; Human immunodeficiency virus 1, MT4, read-out: EC50 K103N) was 0.00613 ± 0.00012 µM and the “RF K103N” value (HIV-1 K103N; [6]) was 1.8. The “SI K103N” value (HIV-1 K103N; [7]) was 540, the “Death or signs of intoxication” value [2] was “no death or signs of intoxication” and the IC50 (hERG channel) was 0.079 µM. The CC50 at 5 days [3] was 3.31 ± 1.7 µM, the EC50 (HIV-1 Y188L; Human immunodeficiency virus 1, MT4, read-out: EC50 Y188L) was 0.0165 ± 0.00518 µM and the “RF Y188L” value (HIV-1 Y188L; [6]) was 4.8. The “SI Y188L” value (HIV-1 Y188L; [7]) was 201, the IC50 (HIV-1 RT) was 0.529 ± 0.142 µM and the IC50 at 10 min [4] was 3.41 to 50 µM. The EC50 (HIV-1 E138K; Human immunodeficiency virus 1, MT4, read-out: EC50 E138K) was 0.0214 ± 0.00419 µM, the “RF E138K” value (HIV-1 E138K; [6]) was 6.2 and the “SI E138K” value (HIV-1 E138K; [7]) was 155. The IC50 (CYP2D6) was 36.8 µM, the EC50 ([5]; Human immunodeficiency virus 1, MT4, read-out: EC50 RES056) was 0.0152 ± 0.00944 µM and the “Fold greater potency than EFV, RES056” value ([5]; ratio of EC50 values vs EFV) was 7.5 fold. For the same compound, the “Fold greater potency than ETR, RES056” value ([5]; ratio of EC50 values vs ETR) was 2.3 fold, the “RF RES056” value [5, 6] was 4.4 and the “SI RES056” value [5, 7] was 218. For the same compound, the EC50 (HIV-1 WT strain (IIIB)) was 0.00343 ± 0.002 µM, the EC50 (HIV-1 Y181C; Human immunodeficiency virus 1, MT4, read-out: EC50 Y181C) was 0.00846 ± 0.00117 µM and the “Fold improvement in potency compared to ETR, Y181C” value (HIV-1 Y181C; ratio of EC50 values vs ETR) was 1.7 fold. The “RF Y181C” value (HIV-1 Y181C; [6]) was 2.5 and the “SI Y181C” value (HIV-1 Y181C; [7]) was 391.
